Patent US7511167B2, “Two-photon dyes for real-time imaging of lipid rafts” (Korea University Industry and Academy Cooperation Foundation, priority 2006, dated 2009)
Several values for one entry are separate records, joined by “and”; a condition that tells them apart may be missing. Equal values may be shown once. Read-outs that look alike come from different tables or passages of the source.

Columns and labels:
[1] = Spectroscopic measurements of the dyes in four solvents (Test Example 2); assay type: physicochemical; conditions: for quantum yield in water relative to that in ethanol: water versus ethanol
Experimental: The two-photon dyes prepared in Example 1 and Comparative Example 1 were dissolved in four solvents (hexane, DMF, ethanol and water), respectively. The one-photon maximum absorption wavelength (λmax), one-photon maximum emission wavelength (λ^f1max), two-photon maximum absorption wavelength (λ^(2)max), quantum yield (Φ) and two-photon absorption efficiency (δmax) of the solutions were measured, and the results are shown in Table 1. The absorption spectra were measured on a Hewlett-Packard 8453 diode array spectrophotometer. The fluorescence spectra were obtained with an Aminco Bowman series 2 luminescence spectrometer. The two-photon absorption efficiency means a maximum value of a two-photon cross section (δTPA). The two-photon cross section can be calculated by the following equation 1: […]
wherein the subscripts s and r represent sample and reference molecules, respectively, δ represents the two-photon cross section, S represents the strength of signals collected by a CCD detector, Φ represents the fluorescence quantum efficiency, φ represents the total fluorescence collection efficiency of an experimental system, c represents the number density of the molecules within each of the solutions, and δr represents the two-photon cross section of reference molecules.

[2] = Reflection tests of polarity of solvents, fluorescence spectra (Test Example 1); assay type: physicochemical
Experimental: Time-resolved fluorescence (TRF) spectra of the two-photon dyes prepared in Comparative Example 1 and Example 1 were measured to examine changes in the one-photon fluorescence wavelength of the dyes according to the polarity of solvents. In this test, hexane, DMF, ethanol and water were used as solvents. The polarity of the solvents increases in the order: hexane<DMF<ethanol<water. […] Since Laurdan has a long hydrocarbon tail, the dye molecules surrounded by the adjacent dye molecules were placed in a hydrophobic environment, and as a result, a blue shift was observed. […] From these observations, it can be concluded that Laurdan is not suitable for use in real-time imaging of lipid rafts.
On the other hand, time-resolved fluorescence (TRF) spectra of the two-photon dye (TPD4) prepared in Example 4 were measured to examine changes in the one-photon fluorescence wavelength of the dye according to the polarity of solvents. In this test, THF, DMF, ethanol and ethanol/water were used as solvents. The polarity of the solvents increases in the order: THF<DMF<ethanol<ethanol/water. […] As mentioned previously, the reason for this is because the fluorescence quantum yield and fluorescence lifetime of TPD4 in a hydrophilic environment were decreased drastically. Therefore, lipid rafts can be directly observed due to the difference in fluorescence intensity.

[3] = Reflection tests of polarity of liposomes (Test Example 3); assay type: physicochemical; conditions: for fluorescence wavelength (peaks): DOPC liposomes; for maximum fluorescence wavelength: DPPC liposomes
Experimental: Three kinds of liposomes having different fluidity (polarity) were prepared to examine how much the two-photon dyes prepared in Example 1 and Comparative Example 1 reflected the polarity of the liposomes. Specifically, DOPC liposomes were prepared from 1,2-dioleoyl-sn-glycerol-3-phosphocholine (DOPC) having unsaturated fatty acids so as to reflect the fluidity of phospholipids of plasma membranes. The DOPC liposomes were relatively fluid. DOPC/Sphingo/Chol liposomes were composed of DOPC, sphingomyelin and cholesterol in the same ratio so as to simultaneously reflect phospholipids and lipid rafts. DPPC liposomes were prepared from 1,2-dipalmitoyl-sn-glycerol-3-phosphocholine (DPPC) so as to reflect lipid rafts. The DPPC liposomes were in a gel state and had lowest fluidity. Next, the three kinds of liposomes were stained with Laurdan and TPD1, and their spectral properties were examined. Referring to FIGS. 3a (Laurdan) and 3b (TPD1), the maximum one-photon absorption wavelengths of Laurdan and TPD1 were in the range of 360-395 nm, regardless of the kind of the liposomes. However, the fluorescence intensity of the liposomes increased with the hydrophobicity of the liposomes in the order: DOPC<DOPC/Sphingo/Chol<DPPC. […] Referring to FIG. 3c, the maximum fluorescence wavelength of Laurdan in DPPC is 440 nm and the fluorescence spectrum of Laurdan in DOPC is broader.
In the meanwhile, the fluorescence wavelength bands of Laurdan in DOPC/Sphingo/Chol and DPPC were confirmed to overlap almost completely. […] In contrast, TPD1 prepared in Example 1 emitted fluorescence of 442 nm in DPPC and fluorescence of 486 nm in DOPC (FIG. 3d). In addition, the fluorescence spectrum of TPD1 in the DOPC/Sphingo/Chol liposomes is broad and almost the same as the sum of the spectra in the DPPC and DOPC liposomes.
On the other hand, the different kinds of liposomes were stained with TPD4 prepared in Example 4, and their fluorescence spectra were examined. Referring to FIG. 4, the fluorescence intensity of the fluid DOPC liposomes (in a hydrophilic environment) was ⅛ of that of the DPPC liposomes and about 1/6.5 of that of the DOPC/Sphingo/Chol liposomes.

[4] = cited from earlier work
A431 cells = experiment: Cytotoxicity test, MTT assay (Test Example 7); assay type: cell-based; conditions: 1×10^−5 M, DMSO (1%) reference, incubation for 6 hours
Description: To evaluate whether the two-photon dyes of the present invention are cytotoxic or not, MTT assay was done on the two-photon dye prepared in Example 1. Specifically, A431 cells were stained with TPD1 (1×10^−5 M) and DMSO (1%) was used as a reference solvent. […] Therefore, it can be concluded that the two-photon dye of the present invention is suitable for imaging of living cells.

Compound	Φ (quantum yield) ([1]; solvent DMF)	δmax (two-photon absorption efficiency) ([1]; solvent DMF) [GM]	λ^(2)max (two-photon maximum absorption wavelength) ([1]; solvent DMF)	λ^flmax (one-photon maximum emission wavelength) ([1]; solvent DMF)	λmax (one-photon maximum absorption wavelength) ([1]; solvent DMF)	Φ (quantum yield) ([1]; solvent ethanol)	δmax (two-photon absorption efficiency) ([1]; solvent ethanol) [GM]	λ^(2)max (two-photon maximum absorption wavelength) ([1]; solvent ethanol)	λ^flmax (one-photon maximum emission wavelength) ([1]; solvent ethanol)	λmax (one-photon maximum absorption wavelength) ([1]; solvent ethanol)	Φ (quantum yield) ([1]; solvent hexane)	λ^flmax (one-photon maximum emission wavelength) ([1]; solvent hexane)	λmax (one-photon maximum absorption wavelength) ([1]; solvent hexane)	Φ (quantum yield) ([1]; solvent water)	λ^flmax (one-photon maximum emission wavelength) ([1]; solvent water)	λmax (one-photon maximum absorption wavelength) ([1]; solvent water)	quantum yield in water relative to that in ethanol [1]	fluorescence wavelength (peaks) [3]	maximum fluorescence wavelength [3] [nm]	also measured
CCCCCCCCCCCC(=O)c1ccc2cc(N(C)C)ccc2c1 [Laurdan, reference compound]	1.00	50	780	454	356	1.00	57	780	487	363	0.11	407	344	0.01	431	354	1/100	439 nm and 484 nm	440	solubility in water ([2]; water): substantially insoluble in water; wavelength of light emitted in water ([2]; water): 400-460 nm; maximum fluorescence wavelength in water with the highest polarity ([2]; water versus less polar solvents): decreased (i.e. blue-shifted); fluorescence emitted in lipid raft domains in a hydrophobic environment ([4]; cell membranes): 400 to 460 nm; fluorescence emitted in phospholipid domains in a hydrophilic environment ([4]; cell membranes): 470 to 530 nm; fluorescence emitted by the precipitate ([4]; water): 450 nm; solubility in water ([4]; water): barely soluble in water
CCCCCCCCCCCC(=O)c1ccc2cc(N(C)CC(=O)O)ccc2c1 [TPD1]	0.36	167	780	446	363	0.43	153	780	494	383	0.10	404	345	0.11	522	384	¼	486 nm	442	two-photon absorption efficiency relative to the dye of Comparative Example 1 [1]: about three to six times; two-photon absorption efficiency, maximum ([1]; over the solvents): 323 GM; two-photon absorption efficiency, minimum ([1]; over the solvents): 153 GM; δmax (two-photon absorption efficiency) ([1]; solvent water): 323 GM; λ^(2)max (two-photon maximum absorption wavelength) ([1]; solvent water): 820; maximum fluorescence wavelength as the polarity of the solvents increased ([2]; hexane<DMF<ethanol<water): increased; fluorescence intensity relative to Laurdan ([3]; in all liposomes): 2-5 times; cytotoxicity (cell viability, MTT) versus reference solvent (A431 cells): no significant difference in cytotoxicity
CCCCCCCCCC(=O)/C=C/c1ccc2cc(N(C)CC(=O)OC(C)(C)C)ccc2c1 [TPD4]	–	–	–	–	–	–	–	–	–	–	–	–	–	–	–	–	–	–	–	fluorescence intensity as the polarity of the solvents increased ([2]; THF<DMF<ethanol<ethanol/water): reduced drastically; fluorescence intensity of DOPC liposomes relative to DPPC liposomes ([3]; stained liposomes): ⅛
